Assay results as given in patent US20240374737A1, “ERK5 DEGRADERS AND USES THEREOF” (DANA-FARBER CANCER INSTITUTE, INC., priority 2021, published 2024).

Legend:
ERK5 [1] = target: T1, ERK5 (Homo sapiens, UniProt Q13164); assay: ERK5 degradation immunoblot in Molt4 cells; type: cell-based; settings: for ERK5 degradation (immunoblot): 0.1 μM or 1 μM; for ERK5 degradation (immunoblot) / concentration at which ERK5 degradation is seen (as low as / up to): 5 hours
T1 construct: endogenous in cells; host or cells: Molt4 cells
T1 sequence (Q13164 whole entry): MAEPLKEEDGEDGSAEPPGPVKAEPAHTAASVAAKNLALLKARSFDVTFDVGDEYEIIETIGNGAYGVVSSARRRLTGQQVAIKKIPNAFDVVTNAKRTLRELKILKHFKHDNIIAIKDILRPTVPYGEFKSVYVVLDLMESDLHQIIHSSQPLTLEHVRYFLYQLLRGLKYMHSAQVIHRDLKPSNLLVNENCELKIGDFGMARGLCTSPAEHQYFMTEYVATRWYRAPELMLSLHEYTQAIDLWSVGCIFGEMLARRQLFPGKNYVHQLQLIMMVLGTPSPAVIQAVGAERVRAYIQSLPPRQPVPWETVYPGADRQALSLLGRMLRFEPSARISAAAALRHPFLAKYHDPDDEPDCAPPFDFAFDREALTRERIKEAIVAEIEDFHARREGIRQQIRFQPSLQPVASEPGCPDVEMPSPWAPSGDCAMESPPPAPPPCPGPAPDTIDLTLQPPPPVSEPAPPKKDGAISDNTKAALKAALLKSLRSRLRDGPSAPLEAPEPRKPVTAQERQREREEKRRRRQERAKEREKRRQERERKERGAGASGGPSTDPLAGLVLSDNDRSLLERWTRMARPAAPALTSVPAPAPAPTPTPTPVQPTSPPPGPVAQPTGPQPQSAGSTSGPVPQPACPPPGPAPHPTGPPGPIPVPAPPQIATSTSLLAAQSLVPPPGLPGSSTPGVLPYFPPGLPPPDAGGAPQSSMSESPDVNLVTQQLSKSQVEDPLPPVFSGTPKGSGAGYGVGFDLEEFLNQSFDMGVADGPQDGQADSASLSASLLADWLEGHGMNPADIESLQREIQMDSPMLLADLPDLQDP
Method: Molt4 cells were maintained in RPMI 1640 supplemented with 10% FBS and 100 U/mL Penicillin-Streptomycin at 37° C. in the presence of 5% CO2. […] The cells were then lysed with RIPA buffer containing phosphatase/protease inhibitor, and cell extracts were precleared by centrifugation at 21000×g for 5 minutes at 4° C. The Pierce BCA protein assay kit was used to assess protein lysate concentration and normalized using SDS sample buffer. Lysates were resolved on 4-12% Tris-Base gels and transferred to an Immuno-Blot PVDF membrane. The membrane was blocked for 1 hour, then incubated with primary antibodies against ERK5 (Cell Signaling) and j-Actin (Cell Signaling). The next day, membranes were washed with TBS-T, then incubated at room temperature for 1 hour with IRDye@800-labeled goat anti-rabbit IgG and IRDye@800-labeled goat anti-mouse IgG (LI-COR) secondary antibodies. The membranes were detected on Odyssey® CLx system.

ERK5 [2] = target: T1, ERK5; assay: Multiplexed tandem mass tag quantitative mass spectrometry proteomics in Molt4 cells; type: cell-based; settings: 100 nM, 5 hours, vs DMSO vehicle
Method: FIG. 3 is a scatterplot that depicts the change in relative protein abundance of compound 2 (100 nM, 5 h)-treated MOLT4 cells compared with DMSO vehicle control-treated cells. Protein abundance measurements were made using tandem mass tag quantitative mass spectrometry. The log 2fold change (log 2FC) is shown on the y axis and negative log 10p value (−log 10p value) on the x axis.

SMILES	time of treatment within which ERK5 degradation is induced (ERK5 [1]; 0.1 μM and 1 μM, time course 1 h, 2 h, 3 h, 4 h) [h]	ERK5 degradation (immunoblot) (ERK5 [1])	VHL dependence of ERK5 degradation (ERK5 [1]; 5 h, compared with negative control)	concentration at which ERK5 degradation is seen (as low as / up to) (ERK5 [1]) [µM]	concentration at which ERK5 degradation is induced (as low as) (ERK5 [1]; 5 hours of treatment) [nM]	change in relative protein abundance (proteome-wide selectivity) (ERK5 [2])
Cc1ncsc1-c1ccc([C@H](C)NC(=O)[C@@H]2C[C@@H](O)CN2C(=O)[C@@H](NC(=O)CCCCCN2CCN(c3ccc4c(C5CCN(C(=O)c6ccc(OC(F)(F)F)cc6N)CC5)ncnc4c3)CC2)C(C)(C)C)cc1 [compound 2, (2S,4R)-1-((S)-2-(6-(4-(4-(1-(2-amino-4-(trifluoromethoxy)benzoyl)piperidin-4-yl)quinazolin-7-yl)piperazin-1-yl)hexanamido)-3,3-dimethylbutanoyl)-4-hydroxy-N—((S)-1-(4-(4-methylthiazol-5-yl)phenyl)ethyl)pyrrolidine-2-carboxamide]	≤ 2	potently degraded ERK5	degraded ERK5 in a VHL-dependent manner	≤ 0.05	≤ 50	significant downregulation of only ERK5 protein levels
Cc1ncsc1-c1ccc([C@H](C)NC(=O)[C@H]2C[C@H](O)CN2C(=O)[C@@H](NC(=O)CCCCCN2CCN(c3ccc4c(C5CCN(C(=O)c6ccc(OC(F)(F)F)cc6N)CC5)ncnc4c3)CC2)C(C)(C)C)cc1 [compound 13, (2R,4S)-1-((S)-2-(6-(4-(4-(1-(2-amino-4-(trifluoromethoxy)benzoyl)piperidin-4-yl)quinazolin-7-yl)piperazin-1-yl)hexanamido)-3,3-dimethylbutanoyl)-4-hydroxy-N—((S)-1-(4-(4-methylthiazol-5-yl)phenyl)ethyl)pyrrolidine-2-carboxamide, reference compound]	–	did not recruit the VHL E3 ligase or induce ERK5 degradation	–	> 5	–	–
